Data from patent US20090088432A1, “Thiazolinones and Oxazolinones and their Use as Ptp1b Inhibitors” (priority 2005, published 2009).

The molecules below were run against T1, Recombinant human Protein-tyrosine phosphatase1B (PTP1B) (Homo sapiens, UniProt P18031) (assay: PTP1B enzyme inhibition assay (pNpp substrate)). Details: inhibition of recombinant human PTP1B, pNpp 5 mM, 30 mins at 25° C; inhibitor concentration not given.
T1 construct: Recombinant human Protein-tyrosine phosphatase1B (PTP1B) (amino acid 1-322 Biomol, USA); purchased Biomol, USA
T1 sequence (P18031 1-322): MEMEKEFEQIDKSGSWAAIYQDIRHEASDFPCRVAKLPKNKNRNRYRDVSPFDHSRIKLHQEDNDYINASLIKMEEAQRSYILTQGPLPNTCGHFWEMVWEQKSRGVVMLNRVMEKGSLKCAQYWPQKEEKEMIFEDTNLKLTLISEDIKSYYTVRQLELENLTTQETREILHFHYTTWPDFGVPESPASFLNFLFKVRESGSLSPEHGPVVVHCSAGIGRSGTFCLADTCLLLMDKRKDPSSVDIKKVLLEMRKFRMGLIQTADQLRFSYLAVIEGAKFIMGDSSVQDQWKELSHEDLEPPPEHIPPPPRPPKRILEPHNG
Format: biochemical
Outline: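 Recombinant human PTP1B (0.016 μg/well) preincubated with compound 30 min at 25 °C in 50 mM HEPES pH 7.4, 1 mM EDTA, 1 mM DTT, 0.05% Igepal, 1% DMSO final. Reaction started with 5 mM pNpp, run 30 min at 25 °C; p-nitrophenol read at 410 nm.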

Molecule | Activity Score
Cc1ccc(S(=O)(=O)NC(=O)Cc2ccc(NC3=NC(=O)C(=Cc4ccc5c(c4)OCCO5)S3)cc2)cc1 [Compound 125, N-(2-{4-[5-(2,3-Dihydro-benzo[1,4]dioxin-6-ylmethylene)-4-oxo-4,5-dihydro-thiazol-2-ylamino]-phenyl}-acetyl)-4-methyl-benzenesulfonamide] | (+++) (+++ = >50% inhibition)
CC(C)Oc1cc2ccccc2cc1C=C1SC(Nc2ccc(CC(=O)O)cc2)=NC1=O [Compound 10, {4-[5-(3-Isopropoxy-naphthalen-2-ylmethylene)-4-oxo-4,5-dihydro-thiazol-2-ylamino]-phenyl}-acetic acid] | (++) (++ = 20-50% inhibition)
(4-{2-[5-(3-Benzyloxy-naphthalen-2-ylmethylene)-4-oxo-4,5-dihydro-thiazol-2-ylamino]-acetyl amino}-phenyl)-acetic acid [Compound 22] | (+++) (+++ = >50% inhibition)
CCC(C(=O)[O-])c1ccc(NC2=NC(=O)C(=Cc3cc4ccccc4cc3OCc3ccccc3)S2)cc1.[Na+] [Compound 84, 2-{4-[L-(3-Benzyloxy-naphthalen-2-ylmethylene)-4-oxo-4,5-dihydro-thiazol-2-ylamino]-phenyl}-sodium butyrate] | (+++) (+++ = >50% inhibition)
O=C(O)Cc1cccc(NC2=NC(=O)C(=Cc3ccc4ccccc4c3)S2)c1 [Compound 16, [3-(5-Naphthalen-2-ylmethylene-4-oxo-4,5-dihydro-thiazol-2-ylamino)-phenyl]-acetic acid] | (+) (+ = 10-20% inhibition)
O=C(O)Cc1csc(NC2=NC(=O)C(=Cc3cc4ccccc4cc3OCc3ccccc3)S2)n1 [Compound 133, {2-[5-(3-Benzyloxy-naphthalen-2-ylmethylene)-4-oxo-4,5-dihydro-thiazol-2-ylamino]-thiazol-4-yl}-acetic acid] | (+++) (+++ = >50% inhibition)
CC(C(=O)O)c1ccc(NC2=NC(=O)C(=Cc3ccc4ccccc4c3)S2)cc1 (centres unmarked) [Compound 53, 2-[4-(5-Naphthalen-2-yl-ethylene-4-oxo-4,5-dihydro-thiazol-2-ylamino)-phenyl]-propionic acid] | (++) (++ = 20-50% inhibition)
O=C(O)Cc1ccc(NC2=NC(=O)C(=Cc3ccc(-n4cccc4)cc3)S2)cc1 [Compound 18, {4-[4-Oxo-5-(4-pyrrol-1-yl-benzylidene)-4,5-dihydro-thiazol-2-ylamino]-phenyl}-acetic acid] | (+++) (+++ = >50% inhibition)
O=C(O)Cc1ccc(NC2=NC(=O)C(=Cc3coc4ccccc4c3=O)S2)cc1 [Compound 71, {4-[4-oxo-5-(4-oxo-4H-chromen-3-ylmethylene)-4,5-dihydro-thiazol-2-ylamino]-phenyl}-acetic acid] | (+++) (+++ = >50% inhibition)
O=C(O)Cc1ccc(NC2=NC(=O)C(=Cc3cccc(-n4cnc5ccccc54)c3)S2)cc1 [Compound 88, {4-[5-(3-Benzoimidazol-1-yl-benzylidene)-4-oxo-4,5-dihydro-thiazol-2-ylamino]-phenyl}-acetic acid] | (+++) (+++ = >50% inhibition)
Cc1ccc(S(=O)(=O)NC(=O)Cc2ccc(NC3=NC(=O)C(=Cc4ccc(-n5cnnn5)c(OCc5ccccc5)c4)S3)cc2)cc1.[Na] [Compound 131, N-(2-{4-[5-(3-Benzyloxy-4-tetrazol-1-yl-benzylidene)-4-oxo-4,5-dihydro-thiazol-2-ylamino]-phenyl}-acetyl)-4-methyl-benzenesulfonamide sodium salt] | (+++) (+++ = >50% inhibition)
O=C(O)Cc1ccc(NC2=NC(=O)C(=Cc3cccc(-n4cccc4)c3)S2)cc1 [Compound 51, {4-[4-Oxo-5-(3-pyrrol-1-yl-benzylidene)-4,5-dihydro-thiazol-2-ylamino]-phenyl}-acetic acid] | (+++) (+++ = >50% inhibition)

Other lines, results leading:

Activity Score | Molecule
(++) (++ = 20-50% inhibition) | O=C(Cc1ccc(NC2=NC(=O)C(=Cc3ccc(-c4ccccc4)cc3)S2)cc1)NS(=O)(=O)c1cccs1.[Na] [Compound 223, Thiophene-2-sulfonic acid {2-[4-(5-biphenyl-4-ylmethylene-4-oxo-4,5-dihydro-thiazol-2-ylamino)-phenyl]-acetyl}-amide, sodium salt]
(++) (++ = 20-50% inhibition) | Cc1ccc(S(=O)(=O)NC(=O)Cc2ccc(NC3=NC(=O)C(=Cc4cc5ccccc5cc4OCC(=O)O)S3)cc2)cc1 [Compound 213, [3-(4-Oxo-2-{4-[2-oxo-2-(toluene-4-sulfonylamino)-ethyl]-phenylamino}-4H-thiazol-5-ylidenemethyl)-naphthalen-2-yloxy]-acetic acid]
(+++) (+++ = >50% inhibition) | O=C(O)Cc1ccc(NC2=NC(=O)C(=Cc3ccc(-c4ccccc4)cc3)S2)cc1C(=O)O [Compound 200, 5-(5-Biphenyl-4-ylmethylene-4-oxo-4,5-dihydro-thiazol-2-ylamino)-2-carboxymethyl-benzoic acid]
(+++) (+++ = >50% inhibition) | N#Cc1ccc(-c2ccc(C=C3SC(Nc4ccc(CC(=O)O)cc4)=NC3=O)cc2)cc1 [Compound 243, {4-[5-(4′-Cyano-biphenyl-4-ylmethylene)-4-oxo-4,5-dihydro-thiazol-2-ylamino]-phenyl}-acetic acid]
(+++) (+++ = >50% inhibition) | COc1cc2ccccc2cc1C=C1SC(Nc2ccc(CCC(=O)[O-])cc2)=NC1=O.[Na+] [Compound 177, 3-{-4-[5-(3-Methoxy-naphthalen-2-ylmethylene)-4-oxo-4,5-dihydro-thiazol-2-ylamino]-phenyl}-sodium propionate]
(+++) (+++ = >50% inhibition) | O=C(O)COc1ccc(-c2ccc(C=C3SC(Nc4ccc(CC(=O)O)cc4)=NC3=O)cc2)cc1 [Compound 201, {4-[5-(4′-Carboxymethoxy-biphenyl-4-ylmethylene)-4-oxo-4,5-dihydro-thiazol-2-ylamino]-phenyl}-acetic acid]
(+++) (+++ = >50% inhibition) | NS(=O)(=O)c1ccc(-c2ccc(C=C3SC(Nc4ccc(CC(=O)O)cc4)=NC3=O)cc2)cc1 [Compound 210, {4-[4-Oxo-5-(4′-sulfamoyl-biphenyl-4-ylmethylene)-4,5-dihydro-thiazol-2-ylamino]-phenyl}-acetic acid]
(++) (++ = 20-50% inhibition) | Cc1ccc(S(=O)(=O)NC(=O)Cc2ccc(NC3=NC(=O)C(=Cc4ccc(-c5ccc(O)cc5)cc4)S3)cc2)cc1.[Na].[Na] [Compound 212, N-(2-{4-[5-(4′Hydroxy-biphenyl-4-ylmethylene)-4-oxo-4,5-dihydro-thiazol-2-ylamino]-phenyl}-acetyl)-4-methyl-benzenesulfonamide di-sodium salt]
(+++) (+++ = >50% inhibition) | O=C(O)Cc1ccc(NC2=NC(=O)C(=Cc3ccc(-c4ccc(O)cc4)cc3)S2)cc1 [Compound 199, {4-[5-(4′-Hydroxy-biphenyl-4-ylmethylene)-4-oxo-4,5-dihydro-thiazol-2-ylamino]-phenyl}-acetic acid]
(++) (++ = 20-50% inhibition) | Cc1cc(C=C2SC(Nc3nc(CC(=O)O)cs3)=NC2=O)nn1-c1ccccc1 [Compound 134, {2-[5-(5-Methyl-1-phenyl-1H-pyrazol-3-ylmethylene)-4-oxo-4,5-dihydro-thiazol-2-ylamino]-thiazol-4-yl}-acetic acid]
(+++) (+++ = >50% inhibition) | O=C(O)Cc1ccc(NC2=NC(=O)C(=Cc3ccc4[nH]ccc4c3)S2)cc1 [Compound 170, {4-[5-(H-Indol-5-ylmethylene)-4-oxo-4,5-dihydro-thiazol-2-ylamino]-phenyl}-acetic acid]
